ChEMBL document CHEMBL1150463, “Identification of simpler analogs of neurotensin(913) which retain antinociceptive activity” (Bioorg Med Chem Lett, 1993)
Where a SMILES comes first, the peptide text is derived from it. [ ]: non-standard residue; d: D form. The star is where a group is joined. Orn = NCCC[C@H](N)C(=O)O; Nva = CCC[C@H](N)C(=O)O; Ahx = NCCCCCC(=O)O; X1 = CC(C)CCO*

Assays:
[1] = In vitro affinity for the neurotensin receptor on mouse brain membranes.; type: tissue-based
Mus musculus = experiment: Antinociceptive activity using the mouse phenylquinone writhing assay with i.c.v. administration; type: functional

Row | Ki [1] [nM] | Molecule | ED50 (Mus musculus)
1 | 4 | CC[C@@H](C)[C@H](NC(=O)[C@H](Cc1ccc(O)cc1)NC(=O)[C@@H]1CCCN1C(=O)[C@H](CCCNC(=N)N)NC(=O)[C@@H](N)CCCNC(=N)N)C(=O)N[C@@H](CC(C)C)C(=O)O | –
2 | > 1000 | CC[C@@H](C)[C@H](NC(=O)[C@H](Cc1ccc(O)cc1)NC(=O)[C@@H]1CCCN1)C(=O)O | >50 ug mouse-1
3 | > 100000 | NC(N)=NCCC[C@H](NC(=O)[C@@H](N)CCCN=C(N)N)C(=O)O (H-Arg-Arg-OH) | >50 ug mouse-1
4 | > 10000 | NC(N)=NCCC[C@H](N)C(=O)N1CCC[C@H]1C(=O)O (H-Arg-Pro-OH) | >50 ug mouse-1
5 | > 1000 | CC[C@H](C)[C@H](N)C(=O)N[C@@H](CC(C)C)C(=O)O (H-Ile-Leu-OH) | >50 ug mouse-1
6 | 13000 | O=C(O)[C@H](Cc1ccc(O)cc1)NC(=O)[C@@H]1CCCN1 (H-Pro-Tyr-OH) | >50 ug mouse-1
7 | > 1000 | CC[C@H](C)[C@H](NC(=O)[C@H](Cc1ccc(O)cc1)NC(=O)[C@@H]1CCCN1C(=O)[C@@H](N)CCCN=C(N)N)C(=O)O (H-RPYI-OH) | >=50 ug mouse-1
8 | > 1000 | CC[C@H](C)[C@H](NC(=O)[C@@H](N)Cc1ccc(O)cc1)C(=O)O (H-Tyr-Ile-OH) | >50 ug mouse-1
9 | 3000 | CCC[C@H](N)C(=O)N1CCC[C@H]1C(=O)N[C@@H](Cc1ccc(O)cc1)C(=O)N[C@H](C(=O)N[C@@H](CC(C)C)C(=O)O)[C@@H](C)CC (H-[Nva]PYIL-OH) | >50 ug mouse-1
10 | 520 | CC[C@H](C)[C@H](NC(=O)[C@H](Cc1ccc(O)cc1)NC(=O)[C@@H]1CCCN1C(=O)[C@@H](N)CCCN)C(=O)N[C@@H](CC(C)C)C(=O)O (H-[Orn]PYIL-OH) | 20 ug mouse-1
11 | > 10000 | H-KPAIL-OH | >50 ug mouse-1
12 | 4200 | H-KPYAL-OH | >50 ug mouse-1

Continued, molecule first:

Row | Molecule | Ki [1] [nM] | ED50 (Mus musculus)
13 | CC[C@H](C)[C@H](NC(=O)[C@H](Cc1ccc(O)cc1)NC(=O)[C@@H]1CCCN1C(=O)[C@H](CCCNC(=N)N)NC(=O)[C@@H](N)CCCNC(=N)N)C(=O)N[C@@H](CC(C)C)C(=O)O | – | 0.092 ug mouse-1
14 | CC[C@H](C)[C@H](NC(=O)[C@H](Cc1ccc(O)cc1)NC(=O)[C@@H]1CCCN1C(=O)[C@@H](N)CCCN=C(N)N)C(=O)N[C@@H](CC(C)C)C(=O)O | 73 | 0.0201 ug mouse-1
15 | CC[C@H](C)[C@H](NC(=O)[C@@H](N)Cc1ccc(O)cc1)C(=O)N[C@@H](CC(C)C)C(=O)O | > 10000 | >50 ug mouse-1
16 | NC(N)=NCCC[C@H](NC(=O)[C@@H](N)CCCN=C(N)N)C(=O)N1CCC[C@H]1C(=O)O (H-Arg-Arg-Pro-OH) | – | >=500 ug mouse-1
17 | NC(N)=NCCC[C@H](N)C(=O)N1CCC[C@H]1C(=O)N[C@@H](Cc1ccc(O)cc1)C(=O)O (H-Arg-Pro-Tyr-OH) | > 10000 | 55 ug mouse-1
18 | CC[C@H](C)[C@H](NC(=O)[C@H](Cc1ccc(O)cc1)NC(=O)[C@@H]1CCCN1C(=O)[C@@H](N)CCCCN)C(=O)OCCC(C)C (H-KPYI-X1) | > 10000 | –
19 | CC[C@H](C)[C@H](NC(=O)[C@H](Cc1ccc(O)cc1)NC(=O)[C@@H]1CCCN1)C(=O)N[C@@H](CC(C)C)C(=O)O (H-PYIL-OH) | > 1000 | >50 ug mouse-1
20 | CC[C@H](C)[C@H](NC(=O)[C@H](Cc1ccc(O)cc1)NC(=O)[C@@H]1CCCN1C(=O)CCCCCN)C(=O)N[C@@H](CC(C)C)C(=O)O (H-[Ahx]PYIL-OH) | 1300 | 1.3 ug mouse-1
21 | H-APYIL-OH | 5900 | <50 ug mouse-1
22 | H-KAYIL-OH | > 10000 | >50 ug mouse-1
23 | H-KPYIA-OH | > 10000 | >50 ug mouse-1
24 | H-KPYIL-OH | 690 | 8 ug mouse-1
